Read-outs that look alike come from different tables or passages of the source.

Eight compounds from patent US9284330B2 (priority 2011, dated 2016) can be followed below.

The test system of data set [1] is primary cortical neuron cells. To be noted: for Relative neuron activity (average): 24 h incubation; for Toxicity to primary neurons (in words): concentrations tested 0.01, 0.1 and 1 μM, 24 h.
The next data set deals with acetylcholinesterase (Electrophorus electricus (Electric eel) (Gymnotus electricus), UniProt O42275). Kind of data set: biochemical.
Data set [2] concerns L-type Ca2+ channel. Kind of data set: Blocking of L-type Ca2+ channel by patch clamp, calcium current in rat dorsal root ganglion cells. In kind it is cell-based. To be noted: whole cell patch clamp.
Data set [3] has as its system primary cortical neuron cells. The experiment in a line: Effect of the compounds on the morphology of neurons (microscopy). To be noted: 0.01 to 1 μM, 24 h.
For data set [4], the system named is L-type Ca2+ channel. Kind of data set: Blocking of L-type Ca2+ channel by high content screening analyzer, KCl-induced calcium ion influx in SH-SY5Y cells (Fluo-4-AM).
For data set [5], the system named is tau protein phosphorylation. In kind it is cell-based. To be noted: Western blot, 24 h incubation.

acetylcholinesterase, sequence (O42275 whole entry, looked up): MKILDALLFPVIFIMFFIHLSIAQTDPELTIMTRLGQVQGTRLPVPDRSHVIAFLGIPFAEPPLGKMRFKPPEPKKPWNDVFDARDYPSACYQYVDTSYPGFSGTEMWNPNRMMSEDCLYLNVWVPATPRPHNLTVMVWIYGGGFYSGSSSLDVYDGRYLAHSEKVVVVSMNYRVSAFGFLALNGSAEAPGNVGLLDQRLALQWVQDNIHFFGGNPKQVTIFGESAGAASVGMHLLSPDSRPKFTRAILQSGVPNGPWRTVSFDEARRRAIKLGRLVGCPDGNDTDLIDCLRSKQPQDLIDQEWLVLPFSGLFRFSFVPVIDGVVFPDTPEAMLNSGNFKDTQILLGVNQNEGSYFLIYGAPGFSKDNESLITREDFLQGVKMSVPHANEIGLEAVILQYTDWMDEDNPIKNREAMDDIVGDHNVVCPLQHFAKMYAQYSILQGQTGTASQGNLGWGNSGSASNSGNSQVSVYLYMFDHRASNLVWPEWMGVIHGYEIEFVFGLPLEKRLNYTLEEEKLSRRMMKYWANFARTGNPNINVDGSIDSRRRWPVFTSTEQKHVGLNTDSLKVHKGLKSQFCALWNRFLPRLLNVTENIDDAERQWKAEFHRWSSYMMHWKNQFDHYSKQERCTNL

As to `CCOC(=O)C1=C(C)Nc2nc3c(c(N)c2C1c1ccccc1Cl)CC(C)(C)CC3` (stereo not drawn) [Compound S1, 5-amino-4-(2-chlorphenyl)-2,7,7-trimethyl-1,4,6,7,8,9-hexahydrobenzo[b][1,8]naphthyridine-3-carboxylic acid ethyl ester], the entries for the “Relative neuron activity (average)” value in data set [1] (0.01 μM), in data set [1] (0.1 μM) and in data set [1] (1 μM) were 110.6%, 113.9% and 97.9%, respectively. In addition, the “Toxicity to primary neurons (in words)” value in data set [1] was “no significant toxicity”. Also, the IC50 at acetylcholinesterase stood at 0.768 µM. The results for the “Inhibition rate of L-type Ca2+ channel current” value with L-type Ca2+ channel [2] (100 nmol/L compound) and in the data set on L-type Ca2+ channel [2] (1000 nmol/L compound) were 38.14% and 61.76%, respectively. Besides, in data set [3], the “Effect on the morphology of neurons” value is on record as “no effect on the morphology of neurons”. The “Inhibition rate of KCl-induced calcium ion influx” value with L-type Ca2+ channel [4] (10 μM compound) was 29.29%; in the data set with L-type Ca2+ channel [4] (50 μM compound), 63.60%. In data set [5], the “Intracellular tau protein phosphorylation of neurons” value is recorded as “reduced”.
Regarding `CC1=C(C(=O)OC(C)C)C(c2cccc(F)c2)c2c(nc3c(c2N)CC(C)(C)CC3)N1` (stereo not drawn) [Compound S3, 5-amino-4-(3-fluorophenyl)-2,7,7-trimethyl-1,4,6,7,8,9-hexahydrobenzo[b][1,8]napht hyridine-3-carboxylic acid isopropyl ester], the “Relative neuron activity (average)” value was 107.7% in data set [1] (0.01 μM), 102.4% in data set [1] (0.1 μM) and 98.8% in data set [1] (1 μM). Also, in data set [1], the “Toxicity to primary neurons (in words)” value is given as “no significant toxicity”. Also, inhibition at acetylcholinesterase was half-maximal at 1.13 µM (IC50). For the same compound, the “Inhibition rate of KCl-induced calcium ion influx” value amounted to 81.33% in the data set with L-type Ca2+ channel [4] (10 μM compound) and 86.82% in the data set on L-type Ca2+ channel [4] (50 μM compound). Also, the “Intracellular tau protein phosphorylation of neurons” value in data set [5] was “reduced”.
For `CCOC(=O)C1=C(C)Nc2nc3c(c(N)c2C1c1cccc(Cl)c1)CC(C)(C)CC3` (stereo not drawn) [Compound S6, 5-amino-4-(3-chlorphenyl)-2,7,7-trimethyl-1,4,6,7,8,9-hexahydrobenzo[b][6,8]naphth yridine-3-carboxylic acid ethyl ester], the “Relative neuron activity (average)” value in data set [1] (0.01 μM) is recorded as 107.1%; in data set [1] (0.1 μM), 105.3%; in data set [1] (1 μM), 99.0%. Besides, the “Toxicity to primary neurons (in words)” value in data set [1] is “no significant toxicity”. In addition, on acetylcholinesterase, half-maximal inhibition (IC50) required 0.893 µM. For the same compound, the “Inhibition rate of KCl-induced calcium ion influx” value was 11.30% in the data set with L-type Ca2+ channel [4] (10 μM compound) and 95.51% in the data set on L-type Ca2+ channel [4] (50 μM compound). For the same compound, the “Intracellular tau protein phosphorylation of neurons” value in data set [5] was “reduced”.
With `CC1=C(C(=O)OC(C)C)C(c2ccccc2F)c2c(nc3c(c2N)CC(C)(C)CC3)N1` (stereo not drawn) [Compound S8, 5-amino-4-(2-fluorophenyl)-2,7,7-trimethyl-1,4,6,7,8,9-hexahydrobenzo[b][1,8]napht hyridine-3-carboxylic acid isopropyl ester], the “Relative neuron activity (average)” value in data set [1] (0.01 μM) was 114.7%; in data set [1] (0.1 μM), 101.7%; in data set [1] (1 μM), 97.7%. Further, in data set [1], the “Toxicity to primary neurons (in words)” value is recorded as “no significant toxicity”. In addition, the half-inhibitory concentration (IC50) against acetylcholinesterase was 0.757 µM. Moreover, the results for the “Inhibition rate of KCl-induced calcium ion influx” value in the data set on L-type Ca2+ channel [4] (10 μM compound) and in the data set on L-type Ca2+ channel [4] (50 μM compound) were 61.63% and 93.28%, respectively. Also, the “Intracellular tau protein phosphorylation of neurons” value in data set [5] was “reduced”.
For the compound `COC(=O)C1=C(C)Nc2nc3c(c(N)c2C1c1cccc([N+](=O)[O-])c1)CCCC3C` (stereo not drawn) [Compound S15, 5-amino-4-(3-nitrophenyl)-2,9-dimethyl-1,4,6,7,8,9-hexahydrobenzo[b][1,8]naphthyridine-3-carboxylic acid methyl ester], the “Relative neuron activity (average)” value in data set [1] (0.01 μM) is listed as 111.9%; in data set [1] (0.1 μM) it was 105.8%; in data set [1] (1 μM) it was 65.9%. For the same compound, the “Toxicity to primary neurons (in words)” value in data set [1] is “minor toxicity”. Moreover, at acetylcholinesterase, the 50% inhibitory concentration (IC50) turned out to be 0.729 µM. Besides, the “Intracellular tau protein phosphorylation of neurons” value in data set [5] was “reduced”.
Consider `COC(=O)C1=C(C)Nc2nc3c(c(N)c2C1c1cccc(Cl)c1Cl)CC(C)CC3` (stereo not drawn) [Compound S27, 5-amino-4-(2,3-dichlorophenyl)-2,7-dimethyl-1,4,6,7,8,9-hexahydrobenzo[b][1,8]nap hthyridine-3-carboxylic acid methyl ester], for which the results for the “Relative neuron activity (average)” value in data set [1] (0.01 μM), in data set [1] (0.1 μM) and in data set [1] (1 μM) were 123.7%, 102.9% and 43.0%, respectively. The compound also had an IC50 against acetylcholinesterase of 0.178 µM. Besides, the “Inhibition rate of L-type Ca2+ channel current” value in the data set with L-type Ca2+ channel [2] (100 nmol/L compound) amounted to 39.68%; with L-type Ca2+ channel [2] (1000 nmol/L compound), 65.54%.
`CC1=C(C(=O)OCCN(C)C)C(c2ccccc2)c2c(nc3c(c2N)CC(F)(F)CC3)N1` (stereo not drawn) [Compound S29, 5-amino-7,7-difluoro-2-methyl-4-phenyl-1,4,6,7,8,9-hexahydrobenzo[b][1,8]naphthyr idine-3-carboxylic acid-2-(dimethylamino) ethyl ester] gave an IC50 on acetylcholinesterase of 0.045 µM. Further, the “Inhibition rate of L-type Ca2+ channel current” value was found to be 11.64% in the data set with L-type Ca2+ channel [2] (100 nmol/L compound) and 23.76% in the data set on L-type Ca2+ channel [2] (1000 nmol/L compound). Moreover, the entries for the “Inhibition rate of KCl-induced calcium ion influx” value with L-type Ca2+ channel [4] (10 μM compound) and in the data set with L-type Ca2+ channel [4] (50 μM compound) were 17.93% and 57.19%, respectively.
For `CC1=C(C(=O)OC(C)C)C(c2ccccc2Cl)c2c(nc3c(c2N)CC(C)(C)CC3)N1` (stereo not drawn) [Compound S32, 5-amino-2,7,7-trimethyl-4-(2-chlorphenyl)-1,4,6,7,8,9-hexahydrobenzo[b][1,8]naphth yridine-3-carboxylic acid isopropyl ester], the “Relative neuron activity (average)” value in data set [1] (0.01 μM) is 115.5%; in data set [1] (0.1 μM), 106.5%; in data set [1] (1 μM) it was 98.6%. Besides, the “Toxicity to primary neurons (in words)” value in data set [1] is recorded as “no significant toxicity”. At acetylcholinesterase, this compound gave an IC50 of 6.92 µM. The figures for the “Inhibition rate of KCl-induced calcium ion influx” value with L-type Ca2+ channel [4] (10 μM compound) and with L-type Ca2+ channel [4] (50 μM compound) were 29.49% and 91.10%, respectively. Besides, in data set [5], the “Intracellular tau protein phosphorylation of neurons” value is reported as “reduced”.
